Reference: patent US9346809B2 (LEO PHARMA A/S, priority 2009, dated 2016)
Read-outs that look alike come from different tables or passages of the source.

Legend:
Format in all cases: biochemical
[1] = target: T1, JAK1 (aa 850-1154, catalytic domain, GST-tag) (Homo sapiens, UniProt P23458); assay: JAK kinase assay (HTRF, phosphorylation of TK substrate-biotin), JAK1; conditions: ATP at Km (7 μM)
T1 construct: JAK1 (aa 850-1154) and TYK2 (aa 871-1187) are expressed with an N-terminally fused GST-tag; GST (N); purchased Carna Biosciences, Inc; host or cells: baculovirus expression system
T1 sequence (P23458 850-1154): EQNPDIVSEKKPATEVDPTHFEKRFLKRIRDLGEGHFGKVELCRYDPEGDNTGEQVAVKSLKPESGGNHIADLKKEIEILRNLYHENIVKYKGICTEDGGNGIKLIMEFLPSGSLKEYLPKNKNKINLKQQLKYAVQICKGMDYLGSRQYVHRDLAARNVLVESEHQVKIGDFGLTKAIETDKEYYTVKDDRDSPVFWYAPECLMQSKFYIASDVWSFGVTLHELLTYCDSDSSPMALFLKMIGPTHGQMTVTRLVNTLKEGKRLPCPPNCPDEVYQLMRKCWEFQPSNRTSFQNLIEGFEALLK
Procedure: (§1) Human baculovirus-expressed JAK1, 2, 3 and TYK2 were purchased from Carna Biosciences, Inc. All four purified enzymes contain only the catalytic domain. JAK1 (aa 850-1154) and TYK2 (aa 871-1187) are expressed with an N-terminally fused GST-tag, and JAK2 and JAK3 with an N-terminally fused His-tag.
(§2) Inhibition of phosphorylation of a synthetic peptide was measured in an HTRF-based assay using the TK substrate-Biotin from the Cisbio HTRFKinEASE TK kit. First, 2 μl of TK solution (TK substrate-biotin in kinase buffer [1× enzymatic buffer from HTRFKinEASE TK kit, 1 mM DTT]) is added to a plate containing 1 μl prediluted compound (final assay concentration DMSO: 0.75%). Then, 5 μl kinase-ATP mix (prepared in kinase buffer) is added to the wells and the plates are incubated at RT for 20-30 min. For all four kinases a concentration of ATP that corresponded to the Km for ATP was used. The final concentrations of buffers, substrate, kinase and ATP were: JAK1: 50 mM Hepes buffer pH 7.0, 0.01% BSA, 10 mM MgCl2, 1 mM DTT, 7 μM ATP, 50 nM SEB, 1 μM TK Substrate-Biotin and 5 ng JAK1; JAK2: 50 mM Hepes buffer pH 7.0, 0.01% BSA, 5 mM MgCl2, 1 mM DTT, 4 μM ATP, 1 μM TK Substrate-Biotin and 0.1 ng JAK2; JAK3: 50 mM Hepes buffer pH 7.0, 0.01% BSA, 5 mM MgCl2, 1 mM DTT, 2 μM ATP, 1 μM TK Substrate-Biotin and 0.3 ng JAK3; TYK2: 50 mM Hepes buffer pH 7.0, 0.01% BSA, 5 mM MgCl2, 1 mM DTT, 13 μM ATP, 50 nM SEB, 1 μM TK Substrate-Biotin and 0.8 ng TYK2. Thereafter, the kinase reaction is stopped by adding 4 μl detection mix (final concentrations: 50 mM Hepes buffer pH 7.0, 0.01% BSA, 0.8 M KF, 20 mM EDTA, 42 nM Streptavidin-XL665 and 1:400 STK Ab Cryptate) and the plates are incubated overnight in the dark. The HTRF signal is read using an Envision plate reader.
(§3) In Table 1 selected JAK kinase inhibitory activities are listed with the following indicators: I: EC50<100 nM, II: 100 nM≦EC50≦500 nM and III: EC50>500 nM

[2] = target: T2, JAK2 (catalytic domain, His-tag) (Homo sapiens, UniProt O60674); assay: JAK kinase assay (HTRF, phosphorylation of TK substrate-biotin), JAK2; conditions: ATP at Km (4 μM)
T2 construct: All four purified enzymes contain only the catalytic domain; His (N); purchased Carna Biosciences, Inc; host or cells: baculovirus expression system
T2 sequence (O60674 849-1124 limits assumed): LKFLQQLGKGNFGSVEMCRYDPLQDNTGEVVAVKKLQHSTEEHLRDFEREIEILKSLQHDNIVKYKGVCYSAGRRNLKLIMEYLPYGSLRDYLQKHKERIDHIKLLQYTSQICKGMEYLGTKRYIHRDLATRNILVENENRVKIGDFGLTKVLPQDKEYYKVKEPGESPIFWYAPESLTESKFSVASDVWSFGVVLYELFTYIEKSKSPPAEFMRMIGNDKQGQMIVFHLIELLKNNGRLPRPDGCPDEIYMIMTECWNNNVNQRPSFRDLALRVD
Procedure: as §1, §2, §3

[3] = target: T3, JAK3 (catalytic domain, His-tag) (Homo sapiens, UniProt P52333); assay: JAK kinase assay (HTRF, phosphorylation of TK substrate-biotin), JAK3; conditions: ATP at Km (2 μM)
T3 construct: All four purified enzymes contain only the catalytic domain; His (N); purchased Carna Biosciences, Inc; host or cells: baculovirus expression system
T3 sequence (P52333 822-1111 limits assumed): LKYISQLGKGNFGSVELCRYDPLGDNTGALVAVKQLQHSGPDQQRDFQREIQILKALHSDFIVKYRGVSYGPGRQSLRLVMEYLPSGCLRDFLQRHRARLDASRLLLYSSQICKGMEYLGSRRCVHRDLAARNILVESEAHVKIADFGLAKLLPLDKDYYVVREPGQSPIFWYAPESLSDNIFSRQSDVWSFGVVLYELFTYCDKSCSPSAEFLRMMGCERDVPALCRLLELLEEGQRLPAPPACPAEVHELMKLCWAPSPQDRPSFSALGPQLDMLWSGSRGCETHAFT
Procedure: as §1, §2, §3

[4] = target: T4, TYK2 (aa 871-1187, catalytic domain, GST-tag) (Homo sapiens, UniProt P29597); assay: JAK kinase assay (HTRF, phosphorylation of TK substrate-biotin), TYK2; conditions: ATP at Km (13 μM)
T4 construct: JAK1 (aa 850-1154) and TYK2 (aa 871-1187) are expressed with an N-terminally fused GST-tag; GST (N); purchased Carna Biosciences, Inc; host or cells: baculovirus expression system
T4 sequence (P29597 871-1187): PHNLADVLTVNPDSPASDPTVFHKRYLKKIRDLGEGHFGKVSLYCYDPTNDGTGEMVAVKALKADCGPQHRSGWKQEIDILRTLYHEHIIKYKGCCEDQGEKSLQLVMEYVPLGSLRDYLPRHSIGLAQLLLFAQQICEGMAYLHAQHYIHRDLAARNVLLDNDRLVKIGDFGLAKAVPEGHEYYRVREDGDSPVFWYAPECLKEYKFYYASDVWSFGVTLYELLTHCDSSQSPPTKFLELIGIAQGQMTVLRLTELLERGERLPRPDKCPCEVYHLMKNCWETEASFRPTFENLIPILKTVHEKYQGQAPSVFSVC
Procedure: as §1, §2, §3

[5] = HTRF assay, read-out: JAK1 kinase inhibitory activity (EC50 indicator)
[6] = HTRF assay, read-out: JAK2 kinase inhibitory activity (EC50 indicator)
[7] = HTRF assay, read-out: JAK3 kinase inhibitory activity (EC50 indicator)
[8] = HTRF assay, read-out: TYK2 kinase inhibitory activity (EC50 indicator)
[9] = read-out: JAK1 kinase inhibitory activity (EC50 indicator)
[10] = read-out: JAK2 kinase inhibitory activity (EC50 indicator)
[11] = read-out: JAK3 kinase inhibitory activity (EC50 indicator)
[12] = read-out: TYK2 kinase inhibitory activity (EC50 indicator)

| SMILES | EC50 [1, 5] [nM] | EC50 [2, 6] [nM] | EC50 [3, 7] [nM] | EC50 [4, 8] [nM] | EC50 [1, 9] [nM] | EC50 [2, 10] [nM] | EC50 [3, 11] [nM] | EC50 [4, 12] [nM] | also measured |
| --- | --- | --- | --- | --- | --- | --- | --- | --- | --- |
| Cc1ccc(C(=O)N2CCN(c3ccnc4[nH]ccc34)CC23CC3)s1 [Example 231, (5-Methyl-thiophen-2-yl)-[7-(1H-pyrrolo[2,3-b]pyridin-4-yl)-4,7-diaza-spiro[2.5]oct-4-yl]-methanone] | < 100 | < 100 | 100 to 500 | 100 to 500 | – | – | – | – | – |
| N#Cc1cccc(CC(=O)N2CCN(c3ncnc4[nH]cc(Cl)c34)CC23CC3)c1 [Example 323, 3-{2-[7-(5-Chloro-7H-pyrrolo[2,3-d]pyrimidin-4-yl)-4,7-diaza-spiro[2.5]oct-4-yl]-2-oxo-ethyl}-benzonitrile] | > 500 | < 100 | 100 to 500 | > 500 | – | – | – | – | – |
| N#CCCC(=O)N1CCN(c2nc(N)nc3[nH]ccc23)CC12CC2 [Example 313, 4-[7-(2-Amino-7H-pyrrolo[2,3-d]pyrimidin-4-yl)-4,7-diaza-spiro[2.5]oct-4-yl]-4-oxo-butyronitrile] | < 100 | < 100 | < 100 | 100 to 500 | – | – | – | – | – |
| N#CC1(C(=O)N2CCN(c3ccnc4[nH]ccc34)CC23CC3)CC1 [Example 117, 1-[7-(1H-Pyrrolo[2,3-b]pyridin-4-yl)-4,7-diaza-spiro[2.5]octane-4-carbonyl]-cyclopropanecarbonitrile] | – | – | – | – | 100 to 500 | 100 to 500 | 100 to 500 | > 500 | – |
| CC(=O)Nc1nc(N2CCN(C(=O)Cc3ccc(C#N)cc3)C3(CC3)C2)c2cc[nH]c2n1 [Example 93, N-(4-{4-[2-(4-Cyano-phenyl)-acetyl]-4,7-diaza-spiro[2.5]oct-7-yl}-7H-pyrrolo[2,3-d]pyrimidin-2-yl)-acetamide] | – | – | – | – | < 100 | < 100 | < 100 | 100 to 500 | – |
| CS(=O)(=O)c1ccc(C(=O)N2CCN(c3ncnc4[nH]ccc34)CC23CC3)cc1 [Example 364, (4-Methanesulfonyl-phenyl)-[7-(7H-pyrrolo[2,3-d]pyrimidin-4-yl)-4,7-diaza-spiro[2.5]oct-4-yl]-methanone] | < 100 | < 100 | 100 to 500 | 100 to 500 | – | – | – | – | – |
| N#CCCN1CCCC(C(=O)N2CCN(c3ncnc4[nH]ccc34)CC23CC3)C1 (stereo not drawn) [Example 95, 3-{3-[7-(7H-Pyrrolo[2,3-d]pyrimidin-4-yl)-4,7-diaza-spiro[2.5]octane-4-carbonyl]-piperidin-1-yl}-propionitrile] | – | – | – | – | 100 to 500 | 100 to 500 | > 500 | > 500 | – |
| Cc1c[nH]c2ncnc(N3CCN(C(=O)Cc4cccc(CC#N)c4)C4(CC4)C3)c12 [Example 327, (3-{2-[7-(5-Methyl-7H-pyrrolo[2,3-d]pyrimidin-4-yl)-4,7-diaza-spiro[2.5]oct-4-yl]-2-oxo-ethyl}-phenyl)-acetonitrile] | > 500 | > 500 | > 500 | > 500 | – | – | – | – | – |
| N#CCc1cccc(CC(=O)N2CCN(c3nc(N)nc4[nH]ccc34)CC23CC3)c1 [Example 306, (3-{2-[7-(2-Amino-7H-pyrrolo[2,3-d]pyrimidin-4-yl)-4,7-diaza-spiro[2.5]oct-4-yl]-2-oxo-ethyl}-phenyl)-acetonitrile] | 100 to 500 | 100 to 500 | 100 to 500 | > 500 | – | – | – | – | – |
| O=C(Cc1c[nH]c2ccccc12)N1[C@@H]2CC[C@@H]1CN(c1ncnc3[nH]ccc13)C2 [Example 170, 2-(1H-Indol-3-yl)-1-[3-(7H-pyrrolo[2,3-d]pyrimidin-4-yl)-3,8-diaza-bicyclo[3.2.1]oct-8-yl]-ethanone] | – | – | – | – | 100 to 500 | 100 to 500 | 100 to 500 | > 500 | – |
| Cc1cnc(C(=O)N2CCN(c3ncnc4[nH]ccc34)CC23CC3)cn1 [Example 414, (5-Methyl-pyrazin-2-yl)-[7-(7H-pyrrolo[2,3-d]pyrimidin-4-yl)-4,7-diaza-spiro[2.5]oct-4-yl]-methanone] | < 100 | < 100 | < 100 | 100 to 500 | – | – | – | – | – |
| O=C(c1cnc2ccccc2c1)N1CCN(c2ncnc3[nH]ccc23)CC12CC2 [Example 163, [7-(7H-Pyrrolo[2,3-d]pyrimidin-4-yl)-4,7-diaza-spiro[2.5]oct-4-yl]-quinolin-3-yl-methanone] | – | – | – | – | < 100 | < 100 | > 500 | 100 to 500 | – |
| COc1cc(OC)cc(C(=O)N2CCN(c3ncnc4[nH]ccc34)CC23CC3)c1 [Example 213, (3,5-Dimethoxy-phenyl)-[7-(7H-pyrrolo[2,3-d]pyrimidin-4-yl)-4,7-diaza-spiro[2.5]oct-4-yl]-methanone] | < 100 | < 100 | 100 to 500 | 100 to 500 | – | – | – | – | – |
| O=C(c1cccnc1)N1CCN(c2ncnc3[nH]ccc23)CC12CC2 [Example 42, Pyridin-3-yl-[7-(7H-pyrrolo[2,3-d]pyrimidin-4-yl)-4,7-diazaspiro[2.5]oct-4-yl]methanone] | – | – | – | – | < 100 | < 100 | 100 to 500 | > 500 | – |
| CC(C#N)c1cccc(C(=O)N2CCN(c3ncnc4[nH]ccc34)CC23CC3)c1 (stereo not drawn) [Example 8, 2-{3-[7-(7H-Pyrrolo[2,3-d]pyrimidin-4-yl)-4,7-diazaspiro[2.5]octane-4-carbonyl]phenyl}propionitrile] | – | – | – | – | < 100 | < 100 | 100 to 500 | > 500 | – |
| Cc1c[nH]c2ncnc(N3CCN(C(=O)Cc4ccc(CC#N)cc4)C4(CC4)C3)c12 [Example 328, (4-{2-[7-(5-Methyl-7H-pyrrolo[2,3-d]pyrimidin-4-yl)-4,7-diaza-spiro[2.5]oct-4-yl]-2-oxo-ethyl}-phenyl)-acetonitrile] | > 500 | > 500 | 100 to 500 | > 500 | – | – | – | – | – |
| NS(=O)(=O)c1cc(OCC(=O)N2CCN(c3ncnc4[nH]ccc34)CC23CC3)ccc1Cl [Example 102, 2-Chloro-5-{2-oxo-2-[7-(7H-pyrrolo[2,3-d]pyrimidin-4-yl)-4,7-diaza-spiro[2.5]oct-4-yl]-ethoxy}-benzenesulfonamide] | – | – | – | – | < 100 | < 100 | < 100 | 100 to 500 | – |
| CN(CCC#N)S(=O)(=O)N1CCN(c2ncnc3[nH]ccc23)CC12CC2 [Example 458, 7-(7H-Pyrrolo[2,3-d]pyrimidin-4-yl)-4,7-diaza-spiro[2.5]octane-4-sulfonic acid (2-cyano-ethyl)-methyl-amide] | – | – | – | – | – | – | – | – | EC50 ([1]; HTRF assay, read-out: JAK1 kinase inhibitory activity (EC50)): < 100 nM; EC50 ([2]; HTRF assay, read-out: JAK2 kinase inhibitory activity (EC50)): < 100 nM; EC50 ([3]; HTRF assay, read-out: JAK3 kinase inhibitory activity (EC50)): < 100 nM; EC50 ([4]; HTRF assay, read-out: TYK2 kinase inhibitory activity (EC50)): < 100 nM |
